Marks after values point to notes of the source that are not given here.
Experiments:
[1] = test system: Ba/F3_L858R/T790M/C797S cells; assay: Ba/F3_L858R/T790M/C797S cell proliferation inhibition assay (CellTiter-Glo); assay type: cell-based; conditions: Mus musculus, BaF3; cell proliferation, 72 h, CellTiter-Glo; read-out: Ba/F3 (L858R/T790M/C797S) IC50
Method in brief: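 Ba/F3 cells engineered to carry EGFR L858R/T790M/C797S, seeded at 700 cells/well, exposed to serially diluted compound (0.1% DMSO final) for 72 h at 37 °C, 5% CO2. Viability read by CellTiter-Glo luminescence after 30 min at room temperature; IC50 from dose-response fit.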

A431 cells (EGFR WT) = assay: A431 cell proliferation inhibition assay (CellTiter-Glo); assay type: cell-based; conditions: Homo sapiens, A-431; cell proliferation, 72 h, CellTiter-Glo; read-out: A431 EGFR WT IC50
Method in brief: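 Seeded cells grown 24 h, then exposed 72 h (37° C, 5% CO2) to graded compound dilutions at 0.1% DMSO final. Viability read by CellTiter-Glo luminescence after 30 min at room temperature; IC50 fitted from the dose curve.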

EGFR WT (wild type EGFR) = EGFR WT (wild type EGFR) (Homo sapiens (Human), UniProt P00533); assay: In vitro enzymatic TR-FRET (HTRF KinEASE-TK) kinase assay, EGFR WT; assay type: biochemical; conditions: kinase activity, TR-FRET; read-out: EGFR (WT) IC50
Method in brief: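 Recombinant enzyme preincubated with compound 10 min at room temperature in kinase buffer with 5 mM MgCl2, 1 mM MnCl2, 1 mM DTT. Biotinylated TK substrate plus ATP then added for 40 min. HTRF detection (Sa-XL665, Cryptate antibody) for 1 h; IC50 from 665/615 nm ratio.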

EGFR L858R/T790M/C797S = EGFR L858R/T790M/C797S (Homo sapiens (Human), UniProt P00533, C797S/L858R/T790M); assay: In vitro enzymatic TR-FRET (HTRF KinEASE-TK) kinase assay, EGFR L858R/T790M/C797S; assay type: biochemical; conditions: kinase activity
Procedure: (I) In Vitro Enzymatic Experiment for EGFR WT and EGFR L858R/T790M/C797S
In the assay, the inhibition effect of the compound on the kinase activity of EGFR WT (wild type EGFR) and EGFR L858R/T790M/C797S was tested by adopting a time-resolved fluorescence resonance energy transfer (TR-FRET) method, and half maximal inhibitory concentration IC50 of the compound on the kinase activity of EGFR was obtained.
EGFR recombinase and EGFR L858R/T790M/C797S recombinase, purchased from Signalchem.
HTRF KinEASE-TK kit, purchased from Cisbio.
DTT, MnCl2, and MgCl2, purchased from Sigma.
ATP, purchased from Promega.
Brigatinib, purchased from Selleck.
1) 1× working solution was prepared: 5 mM MgCl2; 1 mM DTT; 1 mM MnCl2 and 1× kinase buffer (in kit).
2) […] of gradiently-diluted compound was transferred to a 384-well plate using Echo 550 (Labcyte).
3) 5 μL of 2× EGFR WT or EGFR L858R/T790M/C797S recombinase solution was added to the 384-well plate, and the plate was incubated at room temperature for 10 min.
4) 5 μL of 2× TK-substrate-biotin substrate solution (containing ATP) was added to the 384-well plate, and the plate was incubated at room temperature for 40 min.
5) 5 μL of assay solution containing Sa-XL 665 HTRF and 5 μL of TK-antibody-Cryptatewas were added to the plate, and the plate was incubated at room temperature for 1 h.
6) The fluorescence signal values at 615 nm and 665 nm were measured for each well using an Envision microplate reader (PerkinElmer).
7) The ratio of fluorescence signal values at 665 nm and 615 nm was calculated for each well.
8) Data analysis was performed using GraphPad Prism software to give the IC50 for compounds.

[2] = test system: Ba/F3_Del19/T790M/C797S cells; assay: Ba/F3_Del19/T790M/C797S cell proliferation inhibition assay (CellTiter-Glo); assay type: cell-based; conditions: Mus musculus, BaF3; cell proliferation, 72 h, CellTiter-Glo; read-out: Ba/F3 (Del19/T790M/C797S) IC50
Method in brief: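 Ba/F3 cells carrying EGFR Del19/T790M/C797S were seeded at 700 cells/well and exposed to serially diluted compound (0.1% DMSO final) for 72 h at 37° C. Viability was read by CellTiter-Glo luminescence to give IC50.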

[3] = test system: PC9 (Del19/T790M/C797S) cells; assay: In vivo efficacy study, PC9 (Del19/T790M/C797S) xenograft; set-up: species or system BALB/c-nu mice; conditions: 21 consecutive days; for Tumor volume (mm^3): mean ± SEM; for Tolerability in mice (in words): po
Procedure: (III) In Vivo Efficacy Study Experiment
The anti-tumor activity and toxic and side effects of compound 53 and compound 27 administered orally for 21 consecutive days on PC9 (Del19/T790M/C797S) were evaluated.
SPF-grade and female BALB/c-nu mice, purchased from Beijing Vital River Laboratory Animal Technology Co., Ltd.
PC9 (Del19/T790M/C797S) cells, self-constructed by Qilu Pharmaceutical Co., Ltd.
PC9 (Del19/T790M/C797S) cells were cultured in RPMI 1640 medium containing 10% FBS at 37° C. in a 5% carbon dioxide incubator; and the cells in exponential growth phase were collected for inoculation.
Under sterile conditions, a cell suspension of in vitro cultured PC9 (Del19/T790M/C797S) was taken, centrifuged to adjust the cell concentration to 3×10^7 cells/mL, and inoculated in mice at the right side armpit (0.1 mL/mouse), and the day of inoculation was defined as day 0.
3.3 Tumor Grouping, Administration and Measurement
a. When the mean tumor volume was about 150 mm^3, 35 mice with moderate tumor volume were selected for enrollment and randomized into 5 groups according to tumor volume: G1: vehicle control group, G2: compound 53 (15 mg/kg), G3: compound 53 (60 mg/kg), G4: compound 27 (15 mg/kg) and G5: compound 27 (35 mg/kg), 7 mice/group.
b. The animals were grouped and then started to be administrated, and the volume for oral administration (po) was 10 mL/kg; the weighing was performed once daily with consecutively 21-day administration; the tumor diameters were measured 2 times a week.
c. Tumor volume (TV): tumor volumes were measured 2 times a week to observe tumor mass volume changes and growth rate. Tumor volume V=1/2×a×b^2, where a and b represent tumor long diameter and short diameter, respectively. The growth inhibition effect of the compounds on tumor tissues is evaluated by using a tumor growth inhibition TGI (%). TGI (%)=[1−(average tumor volume of a certain administration group—average tumor volume at the day of grouping in the administration group)/(average tumor volume of negative control group—average tumor volume on the day of grouping in the negative control group)]×100%. The data of the administration group and the negative control group were obtained on the same day.
d. The mice's living status, including appearance signs, general behavioral activities, mental status, food consumption, respiratory status, fecal and urinary traits, injection site conditions and other toxic manifestations, was closely observed during the course of the experiment.
e. After the endpoint was reached, the mice were euthanized, and animal carcasses were frozen and stored in a freezer and transferred to qualified medical waste treatment organization for disposal.

Chain of EGFR WT (wild type EGFR) (P00533 25-1210): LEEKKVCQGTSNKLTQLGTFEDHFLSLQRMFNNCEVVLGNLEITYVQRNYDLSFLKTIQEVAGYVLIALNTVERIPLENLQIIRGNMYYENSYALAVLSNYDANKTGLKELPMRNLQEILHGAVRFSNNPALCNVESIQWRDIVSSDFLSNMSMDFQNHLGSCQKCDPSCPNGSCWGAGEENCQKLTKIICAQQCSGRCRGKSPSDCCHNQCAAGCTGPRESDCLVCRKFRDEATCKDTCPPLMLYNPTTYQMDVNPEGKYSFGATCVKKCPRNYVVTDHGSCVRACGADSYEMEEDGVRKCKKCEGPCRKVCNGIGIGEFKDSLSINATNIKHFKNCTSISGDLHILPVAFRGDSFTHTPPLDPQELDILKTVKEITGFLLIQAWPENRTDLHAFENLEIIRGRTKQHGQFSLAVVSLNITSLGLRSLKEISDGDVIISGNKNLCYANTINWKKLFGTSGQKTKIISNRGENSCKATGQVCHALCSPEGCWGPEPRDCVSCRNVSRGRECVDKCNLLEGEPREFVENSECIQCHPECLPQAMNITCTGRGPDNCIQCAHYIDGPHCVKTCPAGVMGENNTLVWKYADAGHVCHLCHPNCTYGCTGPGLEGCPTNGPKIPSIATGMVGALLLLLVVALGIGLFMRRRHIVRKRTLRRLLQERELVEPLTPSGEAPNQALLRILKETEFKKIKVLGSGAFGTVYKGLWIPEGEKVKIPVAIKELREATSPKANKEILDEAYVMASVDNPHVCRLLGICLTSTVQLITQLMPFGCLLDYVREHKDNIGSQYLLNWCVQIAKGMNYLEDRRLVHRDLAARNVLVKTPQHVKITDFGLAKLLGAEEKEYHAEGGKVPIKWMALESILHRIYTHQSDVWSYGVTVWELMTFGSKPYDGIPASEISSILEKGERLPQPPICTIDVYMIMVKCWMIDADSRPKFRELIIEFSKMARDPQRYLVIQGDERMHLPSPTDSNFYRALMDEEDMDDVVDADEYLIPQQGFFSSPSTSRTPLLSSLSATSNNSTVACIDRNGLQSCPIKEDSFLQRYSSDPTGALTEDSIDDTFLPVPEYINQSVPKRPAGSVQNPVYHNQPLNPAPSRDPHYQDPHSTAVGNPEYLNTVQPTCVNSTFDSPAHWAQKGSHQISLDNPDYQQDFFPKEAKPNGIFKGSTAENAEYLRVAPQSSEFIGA
Chain of EGFR L858R/T790M/C797S (P00533 25-1210 T790M/C797S/L858R): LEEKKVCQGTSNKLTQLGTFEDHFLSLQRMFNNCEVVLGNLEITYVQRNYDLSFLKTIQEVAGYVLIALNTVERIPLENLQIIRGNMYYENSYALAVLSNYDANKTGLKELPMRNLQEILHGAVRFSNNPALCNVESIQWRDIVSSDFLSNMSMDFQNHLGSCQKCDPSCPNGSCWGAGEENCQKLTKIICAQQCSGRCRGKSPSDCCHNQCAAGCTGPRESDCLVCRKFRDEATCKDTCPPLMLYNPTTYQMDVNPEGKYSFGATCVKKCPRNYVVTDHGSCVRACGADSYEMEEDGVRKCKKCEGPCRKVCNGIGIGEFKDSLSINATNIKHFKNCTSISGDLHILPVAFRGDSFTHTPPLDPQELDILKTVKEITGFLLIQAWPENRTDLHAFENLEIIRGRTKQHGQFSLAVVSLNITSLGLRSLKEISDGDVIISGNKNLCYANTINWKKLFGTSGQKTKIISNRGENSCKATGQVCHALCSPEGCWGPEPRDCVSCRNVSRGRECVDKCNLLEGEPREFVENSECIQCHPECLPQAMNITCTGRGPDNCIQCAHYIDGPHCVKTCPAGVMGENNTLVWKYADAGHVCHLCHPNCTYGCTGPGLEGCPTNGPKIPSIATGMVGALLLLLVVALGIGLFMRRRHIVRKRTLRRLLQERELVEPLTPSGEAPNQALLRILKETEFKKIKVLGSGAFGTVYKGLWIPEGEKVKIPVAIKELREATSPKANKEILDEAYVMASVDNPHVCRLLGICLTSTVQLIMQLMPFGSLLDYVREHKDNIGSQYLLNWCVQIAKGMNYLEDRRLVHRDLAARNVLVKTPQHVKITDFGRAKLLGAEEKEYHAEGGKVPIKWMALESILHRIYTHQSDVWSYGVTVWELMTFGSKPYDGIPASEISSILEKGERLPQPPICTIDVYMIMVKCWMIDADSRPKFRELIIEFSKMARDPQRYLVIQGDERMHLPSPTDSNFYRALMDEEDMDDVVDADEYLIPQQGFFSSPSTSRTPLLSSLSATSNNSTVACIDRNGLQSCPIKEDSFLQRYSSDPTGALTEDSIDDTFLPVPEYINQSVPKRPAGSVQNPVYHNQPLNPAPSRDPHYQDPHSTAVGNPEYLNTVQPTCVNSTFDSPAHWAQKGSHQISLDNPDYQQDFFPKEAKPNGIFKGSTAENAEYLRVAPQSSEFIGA

| SMILES | IC50 [1] [nM] | IC50 (A431 cells (EGFR WT)) [nM] | IC50 (EGFR WT (wild type EGFR)) [nM] | IC50 (EGFR L858R/T790M/C797S) [nM] | IC50 [2] [nM] | Body weight change (%) ([3]; 15 mg/kg po) | TGI (%) ([3]; 15 mg/kg po) | Tumor volume (mm^3) ([3]; 15 mg/kg po) | Body weight change (%) ([3]; 35 mg/kg po) | TGI (%) ([3]; 35 mg/kg po) | Tumor volume (mm^3) ([3]; 35 mg/kg po, P < 0.01 vs G1) | Tolerability in mice (in words) [3] | Body weight change (%) ([3]; 60 mg/kg po) | TGI (%) ([3]; 60 mg/kg po) | Tumor volume (mm^3) ([3]; 60 mg/kg po, P < 0.01 vs G1) |
| --- | --- | --- | --- | --- | --- | --- | --- | --- | --- | --- | --- | --- | --- | --- | --- |
| COc1cc2c(cc1Nc1ncc(Br)c(Nc3ccccc3P(C)(C)=O)n1)-c1cnn(C)c1CCN2C(C)C [Compound 27] | < 10 | 100 to 1000 | 1 to 10 | < 1 | < 10 | 7.0 | 50.6 | 617.6 ± 110.7 | −1.7 | 88.1 | 253.0 ± 58.5** mm^3 | well tolerated | – | – | – |
| COc1cc2c(cc1Nc1ncc(Br)c(Nc3ccc4nccnc4c3NS(C)(=O)=O)n1)-c1cnn(C)c1CCN2C(C)C [Compound 53] | < 10 | 100 to 1000 | < 1 | < 1 | < 10 | 0 | 55.9 | 565.8 ± 82.0 | – | – | – | well tolerated | 6.8 | 102.0 | 117.0 ± 16.1** mm^3 |

Source: patent US20240034743A9, “TRICYCLIC COMPOUNDS AS EGFR INHIBITORS” (QILU PHARMACEUTICAL CO., LTD., priority 2020, published 2024)
